Earlier results in US20080107726A1, “COMPOSITIONS COMPRISING BETA-ADRENERGIC RECEPTOR ANTAGONISTS AND DIURETICS” (priority 2006, published 2008).
Counter-ions that a name gives are not always drawn. Like-named read-outs stand apart in the source and are kept apart here.

Structure (SMILES): COCCc1ccc(OCC(O)CNC(C)C)cc1 (racemic) [Metoprolol succinate, (±)-1-(isopropylamino)-3-[p-(2-methoxyethyl)phenoxy]-2-propanol succinate (2:1) (salt)]
- Solubility (in dichloromethane and 2-propanol): slightly soluble
- Solubility (in ethanol): sparingly soluble
- Solubility (in ethyl acetate, acetone, diethylether and heptane): practically insoluble
- Solubility (in methanol): soluble
- Solubility (in water): freely soluble
